Structures can show the parent of a compound that is named as a salt.
Each molecule was assayed against T1, recombinant human Lysyl Oxidase-Like 2 (LOXL2) (Homo sapiens, UniProt Q9Y4K0) (assay: Amplex Red HRP-coupled amine oxidase assay, recombinant human LOXL2). Settings: 60 min incubation with enzyme at 37° C., putrescine substrate, read-out: Inhibitory activity (IC50, nM) human LOXL2.
T1 construct: purchased R&D systems
T1 sequence (Q9Y4K0 26-774): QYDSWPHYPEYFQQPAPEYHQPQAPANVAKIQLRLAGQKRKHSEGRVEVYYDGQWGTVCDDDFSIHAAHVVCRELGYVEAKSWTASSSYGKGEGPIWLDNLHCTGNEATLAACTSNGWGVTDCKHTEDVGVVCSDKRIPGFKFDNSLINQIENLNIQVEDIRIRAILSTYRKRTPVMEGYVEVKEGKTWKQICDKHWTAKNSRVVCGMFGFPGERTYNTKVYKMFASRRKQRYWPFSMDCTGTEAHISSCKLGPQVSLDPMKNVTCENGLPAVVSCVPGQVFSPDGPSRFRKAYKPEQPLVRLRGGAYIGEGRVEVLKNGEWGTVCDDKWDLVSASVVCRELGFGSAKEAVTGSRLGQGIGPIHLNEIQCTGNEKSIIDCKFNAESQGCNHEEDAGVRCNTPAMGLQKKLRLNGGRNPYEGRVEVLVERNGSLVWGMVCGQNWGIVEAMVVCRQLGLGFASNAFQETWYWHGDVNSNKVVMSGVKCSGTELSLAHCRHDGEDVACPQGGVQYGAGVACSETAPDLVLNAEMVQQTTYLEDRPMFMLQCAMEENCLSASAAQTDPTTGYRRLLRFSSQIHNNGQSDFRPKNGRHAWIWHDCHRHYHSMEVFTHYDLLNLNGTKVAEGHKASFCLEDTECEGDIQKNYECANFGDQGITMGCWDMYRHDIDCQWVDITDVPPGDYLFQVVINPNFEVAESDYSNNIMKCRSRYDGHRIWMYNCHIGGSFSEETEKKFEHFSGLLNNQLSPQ
Type: biochemical
Protocol: The activities of the compounds according to the present invention against recombinant human Lysyl Oxidase-Like 2 (recombinant human LOXL2, R&D systems) were evaluated by measuring the levels of hydrogen peroxide in the HRP (horseradish peroxidase) coupled reactions, with the Amplex Red Hydrogen Peroxide Assay Kit (Molecular Probes, Invitrogen, USA). The tests were carried out at 37° C., and putrescine was used as a substrate. In the HRP coupling reaction, the oxidation of 10-acetyl-3,7-dihydroxyphenoxazine (Amplex Red reagent) by hydrogen peroxide generates a fluorescent product, i.e., resorufin. Briefly, the test compounds were dissolved in dimethyl sulfoxide (DMSO) at a concentration of 20 mM. Dose-response measurements were carried out by serial dilutions in DMSO to generate a six-point curve. The upper concentration was adjusted according to the potency of the compound, and then diluted with the reaction buffer to obtain a final DMSO concentration of 1%. Purified human LOXL2 in 50 mM sodium phosphate buffer (pH7.4) was added to each well of a 96 well black plate. The test compounds dissolved in DMSO were incubated with the human LOXL2 enzyme at 37° C. for 60 minutes. After the incubation for 60 minutes, a reaction mixture containing 400 μM Amplex Red reagent, 30 mM putrescine, and 2 U/mL HRP in 50 mM sodium phosphate buffer (pH 7.4) was added to each well. Fluorescence was measured with a microplate reader (Flexstation3, Molecular Devices), under the conditions of excitation at 530 nm and emission at 590 nm, 1 hour after the addition of the mixture. Inhibition by each compound was measured as % reduction in signal, compared to the control without an inhibitor (diluted DMSO only). The data were fixed to a four-variable logistic model, and […] values were calculated using the GraphPad Prism program.

First: N#Cc1cc(-c2cncc(Cl)c2)c2ncn(C/C(F)=C/CN)c2c1 [Example 189, (Z)-1-(4-amino-2-fluorobut-2-en-1-yl)-4-(5-chloropyridin-3-yl)-1H-benzo[d]imidazol-6-carbonitrile hydrochloride]
Second: N#Cc1cc(-c2cccnc2)c2ncn(C/C(F)=C/CN)c2c1 [Example 187, (Z)-1-(4-amino-2-fluorobut-2-en-1-yl)-4-(pyridin-3-yl)-1H-benzo[d]imidazol-6-carbonitrile hydrochloride]
The IC50 of the first is 5-fold lower: 92.8 nM for the first, 464 nM for the second. The first is the more potent here.

First: CCN(CC)S(=O)(=O)c1ccc(OC)c(-c2cc(C(=O)NOC)cc3c2nnn3C/C(F)=C/CN)c1 [Example 135, (Z)-1-(4-amino-2-fluorobut-2-en-1-yl)-4-(5-(N,N-diethylsulfamoyl)-2-methoxyphenyl)-N-m ethoxy-1H-benzo[d][1,2,3]triazol-6-carboxamide hydrochloride]
Second: CONC(=O)c1cc(-c2ccc(OC)c(S(=O)(=O)N(C)C)c2)c2nnn(C/C(F)=C/CN)c2c1 [Example 132, (Z)-1-(4-amino-2-fluorobut-2-en-1-yl)-4-(3-(N,N-dimethylsulfamoyl)-4-methoxyphenyl)-N-methoxy-1H-benzo[d][1,2,3]triazol-6-carboxamide hydrochloride]
The IC50 of the first is 1.9-fold higher: 35.6 nM for the first, 18.7 nM for the second. The second is the more potent here.

Going from COC(=O)c1cc(-c2cccc(S(=O)(=O)N3CCCC3)c2)c2nnn(C/C(F)=C/CN)c2c1 [Example 116, methyl (Z)-1-(4-amino-2-fluorobut-2-en-1-yl)-4-(3-(pyrrolidin-1-ylsulfonyl)phenyl)-1H-benzo[d][1,2,3]triazol-6-carboxylate hydrochloride] to CONC(=O)c1cc(-c2cccc(S(=O)(=O)N3CCCC3)c2)c2nnn(C/C(F)=C/CN)c2c1 [Example 133, (Z)-1-(4-amino-2-fluorobut-2-en-1-yl)-N-methoxy-4-(3-(pyrrolidin-1-ylsulfonyl)phenyl)-1H-benzo[d][1,2,3]triazol-6-carboxamide hydrochloride], the IC50 falls from 52.4 nM to 24.4 nM (2.1-fold).

First: NC/C=C(\F)Cn1nnc2c(-c3cccc(S(=O)(=O)NC4CC4)c3)cccc21 [Example 110, (Z)-3-(1-(4-amino-2-fluorobut-2-en-1-yl)-1H-benzo[d][1,2,3]triazol-4-yl)-N-cyclopropylbenzenesulfonamide hydrochloride]
Second: CS(=O)(=O)c1cccc(-c2cccc3c2nnn3C/C(F)=C/CN)c1 [Example 106, (Z)-3-fluoro-4-(4-(3-(methylsulfonyl)phenyl)-1H-benzo[d][1,2,3]triazol-1-yl)but-2-en-1-amine hydrochloride]
The IC50 of the first is 1.6-fold lower: 60 nM for the first, 94 nM for the second. The first is the more potent here.

COC(=O)c1cc(-c2cccc(S(=O)(=O)NCc3ccc(OC)cc3)c2)c2ncn(C/C(F)=C/CN)c2c1 [Example 32, methyl (Z)-1-(4-amino-2-fluorobut-2-en-1-yl)-4-(3-(N-(4-methoxybenzyl)sulfamoyl)phenyl)-1H-benzo[d]imidazol-6-carboxylate hydrochloride] and COC(=O)c1cc(-c2cccc(S(=O)(=O)NCc3ccc(OC)cc3)c2)c2nnn(C/C(F)=C/CN)c2c1 [Example 125, methyl (Z)-1-(4-amino-2-fluorobut-2-en-1-yl)-4-(3-(N-(4-methoxybenzyl)sulfamoyl)phenyl)-1H-benzo[d][1,2,3]triazol-6-carboxylate hydrochloride] are within 1.5-fold of each other in IC50: 60.1 nM for the first, 70.6 nM for the second.

COC(=O)c1cc(-c2ccc(OC)c(S(=O)(=O)N(C)C)c2)c2nnn(C/C(F)=C/CN)c2c1 [Example 114, methyl (Z)-1-(4-amino-2-fluorobut-2-en-1-yl)-4-(3-(N,N-dimethylsulfamoyl)-4-methoxyphenyl)-1H-benzo[d][1,2,3]triazol-6-carboxylate hydrochloride] and COC(=O)c1cc(-c2cccc(S(=O)(=O)N(C)C)c2)c2nnn(C/C(F)=C/CN)c2c1 [Example 124, methyl (Z)-1-(4-amino-2-fluorobut-2-en-1-yl)-4-(3-(N,N-dimethylsulfamoyl)phenyl)-1H-benzo[d][1,2,3]triazol-6-carboxylate hydrochloride] are within 1.5-fold of each other in IC50: 18.6 nM for the first, 14.2 nM for the second.

First: CON(C)C(=O)c1cc(-c2cccc(S(=O)(=O)N3CCCC3)c2)c2nnn(C/C(F)=C/CN)c2c1 [Example 137, (Z)-1-(4-amino-2-fluorobut-2-en-1-yl)-N-methoxy-N-methyl-4-(3-(pyrrolidin-1-ylsulfonyl)phenyl)-1H-benzo[d][1,2,3]triazol-6-carboxamide hydrochloride]
Second: CON(C)C(=O)c1cc(-c2cccc(S(=O)(=O)N(C)C)c2)c2nnn(C/C(F)=C/CN)c2c1 [Example 139, (Z)-1-(4-amino-2-fluorobut-2-en-1-yl)-4-(3-(N,N-dimethylsulfamoyl)phenyl)-N-methoxy-N-methyl-1H-benzo[d][1,2,3]triazol-6-carboxamide]
The IC50 of the first is 1.9-fold lower: 37 nM for the first, 69.6 nM for the second. The first is the more potent here.

Compared with NC/C=C(\F)Cn1nnc2c(-c3cncc(Cl)c3)cc(C(F)(F)F)cc21 [Example 201, (Z)-4-(4-(5-chloropyridin-3-yl)-6-(trifluoromethyl)-1H-benzo[d][1,2,3]triazol-1-yl)-3-fluorobut-2-en-1-amine hydrochloride], NC/C=C(\F)Cn1nnc2c(-c3cncc(F)c3)cc(C(F)(F)F)cc21 [Example 200, (Z)-3-fluoro-4-(4-(5-fluoropyridin-3-yl)-6-(trifluoromethyl)-1H-benzo[d][1,2,3]triazol-1-yl)but-2-en-1-amine hydrochloride] is 2.3-fold higher in IC50: 142 nM for the first, 330 nM for the second. The first is the more potent here.

NC/C=C(\F)Cn1nnc2c(-c3cc(CO)ccc3F)cc(C(F)(F)F)cc21 [Example 198, (Z)-(3-(1-(4-amino-2-fluorobut-2-en-1-yl)-6-(trifluoromethyl)-1H-benzo[d][1,2,3]triazol-4-yl)-4-fluorophenyl)methanol hydrochloride] and CC(=O)c1ccc(F)c(-c2cc(C(F)(F)F)cc3c2nnn3C/C(F)=C/CN)c1 [Example 197, (Z)-1-(3-(1-(4-amino-2-fluorobut-2-en-1-yl)-6-(trifluoromethyl)-1H-benzo[d][1,2,3]triazol-4-yl)-4-fluorophenyl)ethan-1-one hydrochloride] are within 1.5-fold of each other in IC50: 226 nM for the first, 308 nM for the second.

Compared with N#Cc1cc(-c2cc(CO)ccc2F)c2ncn(C/C(F)=C/CN)c2c1 [Example 185, (Z)-1-(4-amino-2-fluorobut-2-en-1-yl)-4-(2-fluoro-5-(hydroxymethyl)phenyl)-1H-benzo[d]imidazol-6-carbonitrile hydrochloride], N#Cc1cc(-c2cncc(F)c2)c2nnn(C/C(F)=C/CN)c2c1 [Example 208, (Z)-1-(4-amino-2-fluorobut-2-en-1-yl)-4-(5-fluoropyridin-3-yl)-1H-benzo[d][1,2,3]triazol-6-carbonitrile hydrochloride] is 2.6-fold higher in IC50: 105 nM for the first, 270 nM for the second.

CCN(CC)S(=O)(=O)c1cccc(-c2cc(C(=O)OC)cc3c2ncn3C/C(F)=C/CN)c1 [Example 37, methyl (Z)-1-(4-amino-2-fluorobut-2-en-1-yl)-4-(3-(N,N-diethylsulfamoyl)phenyl)-1H-benzo[d]imidazol-6-carboxylate hydrochloride] and COC(=O)c1cc(-c2cc(S(=O)(=O)C(F)(F)F)ccc2C)c2nnn(C/C(F)=C/CN)c2c1 [Example 128, methyl (Z)-1-(4-amino-2-fluorobut-2-en-1-yl)-4-(2-methyl-5-((trifluoromethyl)sulfonyl)phenyl)-1H-benzo[d][1,2,3]triazol-6-carboxylate hydrochloride] are within 1.5-fold of each other in IC50: 70.3 nM for the first, 94.2 nM for the second.

NC/C=C(\F)Cn1nnc2c(-c3cncnc3)cc(C(F)(F)F)cc21 [Example 202, (Z)-3-fluoro-4-(4-(pyrimidin-5-yl)-6-(trifluoromethyl)-1H-benzo[d][1,2,3]triazol-1-yl)but-2-en-1-amine hydrochloride] and NC/C=C(\F)Cn1nnc2c(-c3cnn(CCO)c3)cc(C(F)(F)F)cc21 [Example 205, (Z)-2-(4-(1-(4-amino-2-fluorobut-2-en-1-yl)-6-(trifluoromethyl)-1H-benzo[d][1,2,3]triazol-4-yl]-1H-pyrazol-1-yl)ethan-1-ol hydrochloride] are within 1.5-fold of each other in IC50: 190 nM for the first, 182 nM for the second.
